Square brackets hold non-standard residues; d marks the D form. Peptide text beside a SMILES is read from it. * marks the point of attachment. Nle = CCCC[C@H](N)C(=O)O; Cbz = O=C(OCc1ccccc1)*
Tests used:
Type in all cases: cell-based, human
[1] = system: fibrocystin cleavage in HEK-293 cells; assay: Luciferase reporter assay of fibrocystin cleavage (pFC-GV / pG5-luc) in HEK-293 cells; conditions: for cleavage of fibrocystin or stability of proteolytic fragments (luciferase activity): HEK-293, 12 hours
Procedure: Reporter Gene Assays—mIMCD-3 cells, HEK-293 cells, or HeLa cells were plated in 6-well dishes (3×10^5 cells/well) and cotransfected with 0.05 μg phRL-TK(Int−) encoding Renilla luciferase (Promega, Madison, Wis.), 0.1 μg Photinus luciferase reporter plasmids, and 0.01-0.3 μg effector plasmids. Luciferase assays were performed as described previously (Hiesberger, 2004). Relative luciferase activity was calculated as the ratio of Photinus and Renilla luciferase.
(§1) FIG. 4 A is an image of a gel illustrating mIMCD3/FC cells were grown for 4 days and incubated with 0.1 μM thapsigargin (lane 2), 5 mM caffeine (lane 3), 75 μM dantrolene (lane 5), 200 μM ruthenium red (lane 7), or no additions (lanes 1, 4 and 6). After 2 hours, media were replaced with media lacking serum but containing the same supplements, and, in addition, 10 nM mifeprisone. Cell lysates were prepared after 24 hours and analyzed by immunoblotting using anti-V5 antibody. FIG. 4B is a graph of mIMCD-3 cells were transfected with 0.2 μg pG5-luc and either 0.2 μg pFC-GV or 0.2 μg pLDLR-GV. After 24 hours, cells were incubated in serum-free media in the presence or absence of 75 μM dantrolene. Relative luciferase activity was determined after 48 h. Data presented are mean ±SE of three separate transfections. The fibrocystin/Gal4-VP16 fusion protein is shown schematically below. Shaded box indicates the transmembrane segment; filled boxes indicate the N-terminal signal sequence and the C-terminal Gal4-VP16 fusion protein. FIG. 4C is an image of a gel illustrating HEK-293 cells transfected with 6 μg pFC-V5, and 8 hours later incubated in serum-free media containing 1-8 mM caffeine, 0.5 μM calphostin, or no additions. Cells were lysed after 16 h, and extracts were analyzed by immunoblotting using anti-V5 antibody. FIG. 4D is a graph of HEK-293 cells transfected with 0.2 μg pFC-GV and 0.2 μg pG5-luc. After 24 hours, cells were incubated in serum-free media containing 5 mM caffeine or no additions. Luciferase activity was measured after 12 hours. Data presented are mean ±SE of three separate transfections. FIG. 4E is an image of a gel illustrating HEK-293 cells stably expressing the m3 muscarinic receptor (lanes 1-4) and untransfected HEK-293 cells (lanes 5-8) were transfected with 6 μg pFC-V5. […] Cells were lysed after 16 hours, and extracts were analyzed by immunoblotting using anti-V5 antibody.
To quantitatively measure fibrocystin cleavage, a luciferase assay was developed that was similar to the ones employed to quantify the proteolytic cleavage of amyloid precursor protein (APP) and low density lipoprotein receptor related protein-1 (LRP1) (Cao, 2001; May, 2003). A plasmid (FC-GV) encoding the synthetic transcription factor Gal4-VP16 fused to the C-terminus of fibrocystin was generated. Proteolytic cleavage of the fibrocystin fusion protein releases Gal4-VP16, which translocates to the nucleus and activates a Gal4-responsive luciferase reporter gene (pG5-luc). Therefore, luciferase expression correlates with fibrocystin cleavage.
To quantify fibrocystin proteolysis in response to intracellular Ca^2+ release, the luciferase reporter assay was employed. HEK-293 cells were cotransfected with the plasmids pFC-GV and pG5-luc and incubated with either 5 mM caffeine or vehicle (as a control).
FIG. 5A is an image of a gel that illustrates HEK-293 cells were transfected with 6 μg pFC-V5.

[2] = system: fibrocystin cleavage in HEK-293 cells; assay: Immunoblot (anti-V5) of fibrocystin proteolysis in HEK-293 cells transfected with pFC-V5
Procedure: as §1
FIG. 5A is an image of a gel that illustrates HEK-293 cells were transfected with 6 μg pFC-V5. […] Fourteen hours later, cellular proteins were extracted and analyzed by immunoblotting using anti-V5 antibody. FIG. 5B is an image of a gel mIMCD3/FC cells were grown for 4 days, and expression of fibrocystin was induced by addition of 10 nM mifepristone. After 24 hours, media were supplemented with 0.1, 0.5, or 1 μM calphostin C. Thirty hours later, cells were harvested, and proteins were analyzed by immunoblotting using anti-V5 antibody. FIG. 5C is an image of a gel illustrating HEK-293 cells were transfected with 3 μg pFC-V5 and either 3 μg of the empty vector pEF-neo (lanes 1 and 3) or 3 μg pEF-PKCαA/E (lanes 2 and 4). After 12 hours media were changed to media containing 10% FCS (lanes 1 and 2) or 0.2% BSA (lanes 3 and 4). Forty-eight hours later, cells were harvested, and proteins were subjected to immunoblotting using anti-V5 antibody. FIG. 5D is a plot illustrating HEK-293 cells transfected with 0.2 μg pG5-luc and 0.2 μg pFC-GV, pLDLR-GV and/or pEF-PKCαA/E. After 16 hours, media were changed to serum-free media containing 100 nM PMA or 500 μM Br-cAMP. Twenty-four hours later, cells were harvested, and relative luciferase activities were determined. Data are the mean ±SE of three independent transfections.

[3] = system: fibrocystin cleavage in mIMCD3/FC cells; assay: Immunoblot (anti-V5) of fibrocystin proteolytic fragments in mIMCD3/FC cells; conditions: 30 hours; for cleavage of fibrocystin or stability of proteolytic fragments: FIG. 9
[4] = 0.1, 0.5, or 1 μM calphostin C 24 hours after induction, FIG. 5B

Molecule: NCCOB(c1ccccc1)c1ccccc1 [2-APB]
- cleavage of fibrocystin or stability of proteolytic fragments (luciferase activity) ([1]; 50 μg/ml 2-APB, FIG. 11): modulated

Molecule: CCCC[C@@H](C=O)NC(=O)[C@H](CC(C)C)NC(=O)[C@H](CC(C)C)NC(C)=O [ALLN, Ac-Leu-Leu-Nle-CHO] (Ac-Leu-Leu-[Nle]-aldehyde)
- abundance of fibrocystin proteolytic fragments ([2]; 10 μM ALLN versus vehicle, 14 hours, HEK-293, FIG. 8): alteration of the abundance
- cleavage of fibrocystin or stability of proteolytic fragments ([3]; 10 μM ALLN): altered

Molecule: C=C1[C@@H](C)[C@H]2[C@H](Cc3ccccc3)NC(=O)[C@]23OC(=O)/C=C/[C@H](O)CCC[C@@H](C)C/C=C/[C@H]3[C@@H]1O [Cytochalasin B]
- cleavage of fibrocystin or stability of proteolytic fragments (luciferase activity) ([1]; 10 μM Cytochalasin B, FIG. 11): modulated

Molecule: C/C1=C/C(=O)O[C@@H]2C[C@@H](CC[C@H](C)/C=C\CC1)O[C@@](O)([C@@H]1CSC(=O)N1)C2 [Latrunculin B]
- cleavage of fibrocystin or stability of proteolytic fragments (luciferase activity) ([1]; 2 μg/ml Latrunculin, FIG. 11): modulated

Molecule: CC(C)C[C@@H](C=O)NC(=O)[C@H](CC(C)C)NC(=O)[C@H](CC(C)C)NC(=O)OCc1ccccc1 [MG-132, Carbobenzoxy-L-leucyl-L-leucyl-L-leucinal] (Cbz-Leu-Leu-Leu-aldehyde)
- fibrocystin cleavage products ([3]; 2 μM MG-132 in combination with 20 μM ATP, FIG. 7): increased presence of cleavage products
- fibrocystin cleavage products ([3]; 2 μM MG-132 versus vehicle, FIG. 6): increase of fibrocystin cleavage products

Molecule: COC(=O)Nc1nc2ccc(C(=O)c3cccs3)cc2[nH]1 [Nocodazole]
- cleavage of fibrocystin or stability of proteolytic fragments (luciferase activity) ([1]; 10 μg/ml Nocodazole, FIG. 11): modulated

Molecule: CCCCCCCCCCCCCC(=O)O[C@@H]1[C@@H](C)[C@@]2(O)[C@@H](C=C(CO)C[C@]3(O)C(=O)C(C)=C[C@@H]23)[C@@H]2C(C)(C)[C@]12OC(C)=O [PMA, phorbol 12-myristate 13-acetate]
- proteolytic cleavage of fibrocystin ([2]; 100 nM PMA, HEK-293, 14 hours, FIG. 5A): marked increase
- total expression of fibrocystin (CMV promoter) ([2]; 100 nM PMA, HEK-293, FIG. 5A): increased
- increase of luciferase activity ([1]; 100 nM PMA, serum-free media, HEK-293, 24 hours, FIG. 5D): 27 fold

Molecule: CC(=O)O[C@H]1C(=O)[C@@]2(C)[C@H]([C@H](OC(=O)c3ccccc3)[C@]3(O)C[C@H](OC(=O)[C@H](O)[C@@H](NC(=O)c4ccccc4)c4ccccc4)C(C)=C1C3(C)C)[C@]1(OC(C)=O)CO[C@@H]1C[C@@H]2O [Taxol]
- cleavage of fibrocystin or stability of proteolytic fragments (luciferase activity) ([1]; Taxol in serum-free media, FIG. 10): modulated

Molecule: CC(C)C[C@@H](C=O)NC(=O)[C@H](CC(C)C)NC(=O)[C@@H](NC(=O)OCc1ccccc1)C(C)C [Z-VLL-CHO, Z-Val-Leu-Leu-CHO] (Cbz-Val-Leu-Leu-aldehyde)
- cleavage of fibrocystin or stability of proteolytic fragments ([3]; 15 μM Z-VLL-CHO): altered

Molecule: C[N+](C)(C)CCOC(N)=O [carbachol]
- fibrocystin cleavage ([2]; 100 μM carbachol, HEK-293 cells without m3 receptor, 16 hours, FIG. 4E): only in HEK-293(m3) cells

Molecule: calphostin C
- caffeine-induced fibrocystin proteolysis ([2]; 0.5 μM calphostin with caffeine, HEK-293, FIG. 4C): prevented
- PMA-induced increase of proteolytic cleavage ([2]; pretreatment with 0.5 μM calphostin C, 100 nM PMA, HEK-293, FIG. 5A): prevented
- expression levels of fibrocystin [3, 4]: did not alter
- fibrocystin proteolysis [3, 4]: dose-dependent inhibition

Source: patent publication US20080045495A1, “Treatment of Patients with Cystic Disease by Alteration of Fibrocystin Proteolysis” (BOARD OF REGENTS, THE UNIVERSITY OF TEXAS SYSTEM, priority 2006, published 2008)
